We go through ten compounds from patent US20060136140A1, “Method for identification and functional characterization of agents which modulate ion channel activity” (priority 2004, published 2006).

“Also recorded” adds a separate entry of the source. Where two headings read alike, the source gives them in different places. No end group written: not given here.

One data set concerns the target HERG protein (Homo sapiens, UniProt Q12809).
For data set [1], the target named is T1, HERG K+ channel (Homo sapiens, UniProt Q12809). As to the method:
Cell functional assay using atomic absorption detection—Rubidium flux out of HERG-transfected CHO cells was characterized using a Shimadzu atomic absorption system. The amount of rubidium in the extracellular and intracellular compartments was determined after depolarization with 50 mM KCl, following a 3-minute incubation with test sample. The atomization buffer included 0.1% […]/1% HNO3 to suppress ionization of rubidium.
Minor modification of the published protocol was necessary due to different expression levels of the HERG protein in recombinant cells.
Two injections per sample are made into a Shimadzu AA and if the cv reaches 10%, a third injection is performed; the computer selects the two closer values.

In data set [2] the target is T1, HERG K+ channel. This is another data set of the same source.
Data set [3] concerns the target T1, HERG K+ channel. The protocol:
Cell functional assay using membrane potential dye—A membrane potential dye-based functional assay based on the HERG-expressing CHO cells has been developed. This assay was performed on the same library in parallel with the radioligand and AA-based functional assay. HERG-expressing CHO cells were plated as for the AA assay, except they were loaded with […] DiBAC4 instead of RbCl. Test samples or controls were added inside a Molecular Devices FlexStation and readings were taken over a 25 minute time frame.
Membrane Potential Assay Procedure—100 uL of 250,000 cells/mL in media were added to a 96-well assay plate and cultured overnight. The cells were washed with Hanks/HEPES buffer with 2 g/L of glucose (loading buffer) and 100 uL of warmed loading buffer was added. 80 uL of the FLIPR Membrane Potential dye (Molecular Devices; dissolved in loading buffer) was then added and the samples incubated for at 45 min at 37° C. Drugs (10× final concentration) in loading buffer were run along with no-drug controls. […] […] Maximum response plateau is expected at approximately 7 minutes. This value will be used for EC50 calculation. […] For the other “actives”, IC50 values will be determined in this assay and at 1 or 2 concentrations in the Rb^+ flux assay.
One whole cell based functional assay we employed was based on the voltage sensitive dye DiBac4, using a detection method originally developed by Dr. Vince Groppi of Pharmacia-Upjohn FLIPR and FlexStation fluorescence detection systems. Cells expressing ion channels like HERG protein are hyperpolarized in the resting state. Inhibition of ion channel activities allows cells to return to normal potential. As the cell membrane becomes more positive, dye migrates into cell membrane, increasing the quantum efficiency of the dye and thus increasing fluorescence. […] Large number of compounds may be readily tested in either 96- or 384-well format. The mechanism of detection is based on the dye translocation in response to changes of the membrane environment. In certain circumstances, it may be desirable to perform confirmatory assays.
The source holds these as a separate data set.

Another data set has as its target HERG potassium current (Homo sapiens, UniProt Q12809). The note with it: cited from earlier work.
Setting [4] is: radiolabeled form, wild type vs recombinant CHO cells.

T1 sequence (Q12809 whole entry): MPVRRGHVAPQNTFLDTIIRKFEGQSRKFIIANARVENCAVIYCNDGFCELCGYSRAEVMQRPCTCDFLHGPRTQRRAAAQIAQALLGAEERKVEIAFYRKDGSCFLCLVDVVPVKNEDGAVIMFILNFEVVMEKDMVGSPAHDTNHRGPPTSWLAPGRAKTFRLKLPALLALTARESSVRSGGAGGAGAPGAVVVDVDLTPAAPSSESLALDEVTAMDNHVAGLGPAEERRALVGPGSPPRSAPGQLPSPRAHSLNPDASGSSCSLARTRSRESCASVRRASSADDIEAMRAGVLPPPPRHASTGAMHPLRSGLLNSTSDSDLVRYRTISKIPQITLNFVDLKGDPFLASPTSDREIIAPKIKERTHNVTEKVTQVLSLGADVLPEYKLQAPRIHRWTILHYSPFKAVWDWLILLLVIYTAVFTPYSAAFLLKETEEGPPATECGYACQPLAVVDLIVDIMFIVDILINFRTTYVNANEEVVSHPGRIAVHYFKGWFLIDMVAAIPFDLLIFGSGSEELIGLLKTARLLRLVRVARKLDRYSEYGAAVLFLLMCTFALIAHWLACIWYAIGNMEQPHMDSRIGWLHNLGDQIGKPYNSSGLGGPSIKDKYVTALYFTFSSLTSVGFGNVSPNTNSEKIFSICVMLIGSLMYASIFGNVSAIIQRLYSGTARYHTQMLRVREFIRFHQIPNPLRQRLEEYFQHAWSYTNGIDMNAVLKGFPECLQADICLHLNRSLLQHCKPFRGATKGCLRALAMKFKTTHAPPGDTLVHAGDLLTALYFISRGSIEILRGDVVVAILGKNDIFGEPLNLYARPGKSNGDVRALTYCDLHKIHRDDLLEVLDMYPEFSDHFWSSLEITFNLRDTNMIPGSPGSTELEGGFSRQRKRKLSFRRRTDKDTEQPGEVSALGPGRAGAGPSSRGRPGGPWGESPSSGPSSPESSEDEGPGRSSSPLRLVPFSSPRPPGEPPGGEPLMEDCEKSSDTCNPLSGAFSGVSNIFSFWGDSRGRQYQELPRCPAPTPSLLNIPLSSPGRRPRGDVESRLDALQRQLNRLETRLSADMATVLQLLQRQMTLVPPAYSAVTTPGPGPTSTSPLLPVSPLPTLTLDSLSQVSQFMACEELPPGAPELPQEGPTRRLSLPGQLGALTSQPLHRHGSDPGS
Sequence of HERG protein (Q12809 whole entry): as above
Sequence of HERG potassium current (Q12809 whole entry): as above
Procedure for HERG protein: Membrane preparations and ligand binding assays—Frozen cell pellets were first thawed and homogenized in 10 to 20 ml of assay buffer. An aliquot was taken for protein determination and the remaining homogenate was centrifuged (48,000×g, 10 min., 4° C.). According to the determined protein concentration, the resultant pellet was suspended in Heylen's buffer and added to radioligand and test compound. […] Bound radioactivity was determined by liquid scintillation spectroscopy.
Sources of radioligand—Various different radioligands were used in order to identify candidates for a given binding site.

In the case of “[^125I]-BeKm-1: custom preparation of the iodinated scorpion toxin (RPTDIKCSESYQCFPVCKSRFGKTNGRCVNGFCDCF; ends and bridges not checked; also: 125I iodinated, site not given here; UniProt Q9BKB7 22-57, looked up)”, in the data set with HERG protein (setting [4]), the “binding of radiolabeled ligand, specificity for the recombinant protein” value (“binding of radiolabeled ligand” for short) was “did not observe sufficient binding”.

Turning to `O=c1[nH]c2ccccc2n1C1CCN(CCCC(c2ccc(F)cc2)c2ccc(F)cc2)CC1` [pimozide, Pimozide], on HERG K+ channel [1], the “inhibition of HERG channel (Rb+ efflux), dose response” value is given as “completely inhibited”. Besides, the “activity in all three assays” value at HERG K+ channel [2] was “consistent and relatively potent activity”.

Consider `COC(=O)C1=C(C)NC(C)=C(C(=O)OCCN(C)Cc2ccccc2)C1c1cccc([N+](=O)[O-])c1` (centres unmarked) [nicardipine, Nicardipine], for which the “activity in the assay using atomic absorption” value at HERG K+ channel [1] (10^−5 M, room temperature) is “modestly active”. Further, the “activity in the dye-based assay” value was “lack of functional activity; also recorded: did not exhibit any activity” on HERG K+ channel [3] (10^−5 M, room temperature) and “lacked activity” at HERG K+ channel [3] (10^−5 M, room temperature, listed as Nicardipine).

`c1ccc(CCCN2CCN(CCOC(c3ccccc3)c3ccccc3)CC2)cc1` [GBR12935]: the “activity in all three assays” value on HERG K+ channel [2] is “consistent and relatively potent activity”.

Usually IC50 stands for the concentration that gives 50% inhibition. Regarding `CC[C@H]1OC(=O)[C@H](C)[C@@H](O[C@H]2C[C@@](C)(OC)[C@@H](O)[C@H](C)O2)[C@H](C)[C@@H](O[C@@H]2O[C@H](C)C[C@H](N(C)C)[C@H]2O)[C@](C)(OC)C[C@@H](C)C(=O)[C@H](C)[C@@H](O)[C@]1(C)O` [Clarithromycin], the IC50 at HERG potassium current is 45.7 µM.

In the case of `O=C(CCCN1CCC(O)(c2ccc(Cl)cc2)CC1)c1ccc(F)cc1` [[^3H]-Haloperidol], the “binding of radiolabeled ligand” value at HERG protein was “high binding levels with both the wild type and the recombinant CHO cells”.

Consider `Fc1ccc(C(OCCN2CCN(CCCc3ccccc3)CC2)c2ccc(F)cc2)cc1` [GBR12909], for which, on HERG K+ channel [2], the “activity in all three assays” value was “consistent and relatively potent activity”.

Consider `COC(=O)[C@H]1[C@@H](c2ccc(F)cc2)C[C@@H]2CC[C@H]1N2C` [WIN-35428], for which the “binding of radiolabeled ligand” value at HERG protein (setting [4]) was “None of these compounds indicated sufficient specificity”.

As for `CC(C)NCC(O)c1ccc(NS(C)(=O)=O)cc1` (racemic) [sotalol, (+/−)sotalol], on HERG K+ channel [1], the “activity in the assay using atomic absorption” value is recorded as “modestly active”. At HERG K+ channel [3], the “activity in the dye-based assay” value is reported as “did not exhibit any activity”.

On to `O=C(CCCN1CCC(O)(c2ccc(Cl)cc2)CC1)c1ccc(F)cc1` [haloperidol, Haloperidol], for which the “inhibition of HERG channel (Rb+ efflux), dose response” value on HERG K+ channel [1] is recorded as “completely inhibited”.
